In assay [1] the target is T1, NSD2 (Homo sapiens, UniProt O96028, T1150A).
T1 construct: full length (residues 2-1365), N-terminal His tag, insect cell/baculovirus
T1 sequence (O96028 2-1365 T1150A): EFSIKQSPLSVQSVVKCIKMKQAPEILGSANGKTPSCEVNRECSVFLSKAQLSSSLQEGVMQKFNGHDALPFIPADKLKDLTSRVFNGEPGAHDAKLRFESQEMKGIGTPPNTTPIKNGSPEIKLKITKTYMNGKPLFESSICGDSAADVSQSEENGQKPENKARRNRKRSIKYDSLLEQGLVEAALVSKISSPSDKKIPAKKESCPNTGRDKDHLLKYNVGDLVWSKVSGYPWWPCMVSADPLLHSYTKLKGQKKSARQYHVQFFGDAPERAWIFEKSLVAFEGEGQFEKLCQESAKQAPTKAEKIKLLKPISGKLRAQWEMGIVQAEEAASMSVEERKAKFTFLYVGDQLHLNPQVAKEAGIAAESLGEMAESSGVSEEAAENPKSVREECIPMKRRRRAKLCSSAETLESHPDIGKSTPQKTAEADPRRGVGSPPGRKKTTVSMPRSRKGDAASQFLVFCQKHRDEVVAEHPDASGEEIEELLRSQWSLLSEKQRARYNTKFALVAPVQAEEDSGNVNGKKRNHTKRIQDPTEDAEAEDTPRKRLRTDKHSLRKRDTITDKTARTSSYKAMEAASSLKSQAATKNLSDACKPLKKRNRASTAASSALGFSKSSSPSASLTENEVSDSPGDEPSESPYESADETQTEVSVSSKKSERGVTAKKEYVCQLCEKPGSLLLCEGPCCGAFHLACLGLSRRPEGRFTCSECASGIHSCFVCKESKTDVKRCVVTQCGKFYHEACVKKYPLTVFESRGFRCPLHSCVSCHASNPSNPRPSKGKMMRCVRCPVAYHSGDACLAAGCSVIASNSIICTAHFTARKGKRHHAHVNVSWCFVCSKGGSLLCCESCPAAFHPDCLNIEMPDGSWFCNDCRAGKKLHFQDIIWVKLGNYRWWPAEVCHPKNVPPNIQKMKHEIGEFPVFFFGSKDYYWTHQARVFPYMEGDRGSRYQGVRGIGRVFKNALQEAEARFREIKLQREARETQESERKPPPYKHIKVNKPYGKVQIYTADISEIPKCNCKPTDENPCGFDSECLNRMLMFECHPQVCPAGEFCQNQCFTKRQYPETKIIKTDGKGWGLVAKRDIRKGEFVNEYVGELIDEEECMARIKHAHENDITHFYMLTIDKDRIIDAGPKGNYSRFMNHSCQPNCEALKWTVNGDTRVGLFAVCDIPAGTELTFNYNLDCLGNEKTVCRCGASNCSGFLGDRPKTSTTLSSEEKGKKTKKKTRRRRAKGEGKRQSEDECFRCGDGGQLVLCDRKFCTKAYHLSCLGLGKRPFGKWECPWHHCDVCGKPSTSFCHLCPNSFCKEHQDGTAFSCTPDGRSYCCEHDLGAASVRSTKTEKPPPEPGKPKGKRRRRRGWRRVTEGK
Put plainly: HotSpot [3H]SAM filter-binding methyltransferase assay. It counts as biochemical.

Assay [2] addresses T2, NSD2 (Homo sapiens, UniProt O96028, E1099K).
T2 construct: full length (residues 2-1365), N-terminal His tag, insect cell/baculovirus
T2 sequence (O96028 2-1365 E1099K): T1 sequence (O96028 2-1365 T1150A) with E1098K, A1149T
Put plainly: biochemical. Further details: MTase-Glo bioluminescence methyltransferase assay, full-length NSD2 with HeLa nucleosomes. The settings on record: read-out: MTase-Glo IC50. The text has this:
A major challenge in screening for small molecule inhibitors is that native NSD2 requires nucleosomes as a substrate ([17]). […] Chemical libraries were screened in 3-dose point quantitative high-throughput screening (qHTS) format ([43]) with the Methyltransferase-Glo (MTase-Glo™) methyltransferase bioluminescence assay ([44]). A number of counter and orthogonal assays were also developed to characterize the hits from the primary screen. Confirmed hits were validated with a radiolabeled SAM substrate-based NSD2 activity assay and further interrogated with binding studies by surface plasmon resonance (SPR), methyltransferase profiling, and activity assessments in U-2 OS cells. […] Overall the reaction conditions were very similar.

Where [3] appears, read: nucleosomes, […] SAM, pH […] MgCl2, […] DTT, […] °C, single experiment.

SMILES strings stand for the structures. Positions count from the first letter of the chain named. Where two headings read alike, the source gives them in different places.

As for `O=C1C(Cl)=C(NCCN2CCOCC2)C(=O)c2ncccc21` [DA3003-1], the IC50 (commonly the concentration at which inhibition is half-maximal) was 170 nM in assay [1] (setting [3]) and 2800 nM in assay [2] (inhibitor). Consider `CC1(C)CCC(CN2CCN(c3ccc(C(=O)NS(=O)(=O)c4ccc(NCC5CCOCC5)c([N+](=O)[O-])c4)c(Oc4cnc5[nH]ccc5c4)c3)CC2)=C(c2ccc(Cl)cc2)C1` [ABT-199], for which the IC50 in assay [1] was found to be 2300 nM; in assay [2] it was 15000 nM.

In assay [1] (setting [3]), `COc1cccc(-n2nc(C(=O)O)cc2-c2ccc(C3CCCCC3)c(Cl)c2)c1` [TC LPA5 4] displayed an IC50 of 8000 nM.

The values above are taken from publication doi:10.1101/208439v1 (biorxiv, 2017).
